The record followed here is BindingDB's records for doi:10.1021/acs.jmedchem.7b01231 (Dongguk University, 2017).

By IC50 is commonly meant the concentration that inhibits the measured activity by half. A higher IC50 goes with a need for much substance.

Each structure is given as a SMILES string.

For the assay, the target named is Hypoxia-inducible factor 1-alpha (Homo sapiens, UniProt Q16665). The assay can be described thus: ChEBML_1681384. As for the experimental part: Inhibition of HIF-1alpha in human HCT116 cells incubated for 12 hrs under hypoxic conditions by HRE dual-luciferase reporter gene assay
Chain of Hypoxia-inducible factor 1-alpha (Q16665 whole entry): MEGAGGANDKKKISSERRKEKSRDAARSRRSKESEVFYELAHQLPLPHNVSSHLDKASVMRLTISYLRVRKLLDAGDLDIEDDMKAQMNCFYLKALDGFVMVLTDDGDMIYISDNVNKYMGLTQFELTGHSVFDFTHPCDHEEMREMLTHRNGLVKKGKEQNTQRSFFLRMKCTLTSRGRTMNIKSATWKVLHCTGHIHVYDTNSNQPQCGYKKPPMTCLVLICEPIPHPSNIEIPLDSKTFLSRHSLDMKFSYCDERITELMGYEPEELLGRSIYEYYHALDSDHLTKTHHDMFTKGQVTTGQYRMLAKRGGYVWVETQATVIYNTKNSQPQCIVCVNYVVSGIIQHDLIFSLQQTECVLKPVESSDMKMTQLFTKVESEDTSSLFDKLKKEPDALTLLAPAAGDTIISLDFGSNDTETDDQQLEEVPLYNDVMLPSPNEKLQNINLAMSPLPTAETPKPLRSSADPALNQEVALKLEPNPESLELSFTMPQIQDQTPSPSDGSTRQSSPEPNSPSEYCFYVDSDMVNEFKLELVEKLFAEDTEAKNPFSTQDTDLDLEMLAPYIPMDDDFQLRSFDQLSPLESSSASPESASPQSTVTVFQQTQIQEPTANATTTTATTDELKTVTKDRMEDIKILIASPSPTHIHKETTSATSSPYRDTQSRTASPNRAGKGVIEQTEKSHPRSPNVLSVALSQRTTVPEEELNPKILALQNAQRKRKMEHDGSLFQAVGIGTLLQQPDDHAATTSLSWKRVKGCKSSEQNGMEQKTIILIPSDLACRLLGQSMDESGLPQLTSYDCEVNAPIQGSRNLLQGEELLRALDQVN
The compound `COC(=O)c1ccc(OC)c(NC(=O)COc2ccc(C(C)(C)CC(C)(C)C)cc2)c1` returned an IC50 greater than 40 µM.

Take `CCCCCc1ccc(OCC(=O)Nc2cccc(C(=O)OC)c2)cc1`: the IC50 is greater than 40 µM.

Regarding `COC(=O)c1cccc(NC(=O)CCCOc2ccc(C(C)(C)CC(C)(C)C)cc2)c1`, half-maximal inhibition (IC50) required 1.4 µM.
